Reference: patent US11110080B2, “Small molecule inhibitors of bacterial efflux pumps and methods of using same” (The Regents of the University of Colorado, a body Corporate, priority 2017, dated 2021)

Legend:
S.Tm = experiment: Swimming assay in soft agar (proton motive force); assay type: cell-based, Salmonella enterica serovar Typhimurium; settings: 50× the MIC (6.25 mM)
Procedure: One way to inhibit efflux pumps is to disrupt the proton motive force, which is required for transport by some EPs. […] Bacteria were injected into the center of 0.25% agar plates, and 10 μl of compound was added to paper disks on the periphery. […] Also ampicillin and rifampicin were tested. We plotted the halo radius versus the concentration as the fold above the MIC (FIG. 9G). […] Next, it was determined whether PAβN inhibited swimming; PAβN is thought to disrupt membranes over long incubations. […] Finally, the EPMs at […] were tested (FIGS. 9D-F).
Saturated overnight cultures were diluted to an OD600 of 0.01 in LB and 1 μL was injected into the center of low agar (0.25%) LB plates. Ten microliters of the indicated compounds were added to sterilized Whatman paper disks (diameter 0.7 cm) placed equidistant from the plate center.

[1] = tested on: bacterial inner membrane potential; experiment: TMRM incorporation (inner membrane potential); assay type: cell-based, Salmonella; settings: 30 minutes, CCCP 1 mM
Procedure: (§1) FIGS. 20A and 20B depict Bacteria treated with DMSO or EPMs [100 μM] but not CCCP [1 mM] acquire TMRM staining within 30 minutes. FIG. 20A depicts representative data from one of three independent experiments. FIG. 20B depicts median fluorescence intensity from three experiments normalized to unstained control (0). FIG. 20C depicts disk diffusion assays; the radius of the zone of growth inhibition after 16 hours of exposure to compound across a dose range. Black lines, semilog fit for the combined antibiotic data; gray lines, semilog fit for CCCP and PAβN; dotted line, limit of detection (disk radius). Average of two measurements from each image captured from one experiment representative of two independent experiments. FIGS. 20D and 20E depict nitrocefin access to the periplasm as monitored by nitrocefin [100 μM] hydrolysis in the presence of the indicated concentrations of compounds. FIG. 20D depicts absorbance 486 nm of bla+ Salmonella normalized to bla− Salmonella. […]
To establish whether the three EPMs alter bacterial inner membrane potential, their effect on the incorporation of the voltage-sensitive dye Tetramethylrhodamine methyl ester (TMRM) was observed. […] To establish whether a longer incubation with the EPMs may compromise membrane integrity, the effect of the EPMs on bacterial swimming, an energy intensive activity was monitored over 15 hours (FIGS. 20C, 10). […]

[2] = tested on: S.Tm in RAW 264.7 macrophages; experiment: SAFIRE in the presence of a transcriptional (DRB) or translational (cycloheximide) inhibitor; assay type: cell-based, Salmonella enterica serovar Typhimurium; settings: 100 μM DRB or 1 μM cycloheximide, no EPM
Procedure: FIG. 13A depicts that RAWs were infected and treated with 25 μM of the indicated compounds using SAFIRE. From 2-18 hours post-infection, cells were treated with DMSO, 100 μM DRB, or 1 μM cycloheximide (CHX). Data for each inhibitor (DRB, CHX) treatment are normalized to cells not treated with EPMs, as differences in basal infection were observed (FIG. 10). Data are mean+SEM of three independent biological replicates, each performed in triplicate. FIG. 13B depicts that RAWs were seeded in 6-well dishes and treated in parallel with FIG. 13A. RNA was extracted at the indicated timepoints, reverse transcribed, and expression of the indicated genes was determined using qPCR. Data shown are mean+SEM of four separate wells from one replicate, and were performed in parallel with one replicate of (A). ****p<0.0001 compared to uninfected by two-way ANOVA with Dunnett's post-test.
Therefore, the question was whether the EPMs require host transcription or translation of AMPs or other factors, for antimicrobial activity. SAFIRE was performed in the presence of a transcriptional (DRB) or translational (cycloheximide) inhibitor (FIG. 13). Since exposure to inhibitors prior to infection greatly diminished macrophage viability, DRB or cycloheximide was added 2 hours post-infection, concurrently with EPMs. […]

[3] = Freeze-thaw sensitivity of DMSO solution, read out by SAFIRE; assay type: physicochemical; settings: 25 μM; freeze thawed 20 times vs freshly dissolved
Procedure: SAFIRE was used to quantify infection of macrophages treated with 25 μM nalidixic acid that was cherry-picked from the plates used to perform the screen (n=2), freshly dissolved in DMSO (n=3), or freshly dissolved and freeze thawed 20 times (n=3). Data are mean+SEM.

[4] = tested on: Salmonella enterica serovar Typhimurium (S.Tm) within RAW 264.7 murine macrophages; experiment: SAFIRE: fluorescence microscopy assay of S.Tm load within macrophages; assay type: cell-based
Procedure: A high-content, high-throughput fluorescence microscopy-based screening platform to assay S.Tm load within macrophages was developed (FIG. 1A). RAW 264.7 murine macrophages, a widely used cell line for bacterial infection studies, were infected with bacteria in a standard gentamicin protection assay. The Salmonella expressing GFP driven by the sifB promoter was incubated with the compound beginning at 2 hours post-infection. At 18 hours post-infection, cells were stained with MitoTracker Red CMXRos as a marker of macrophage vitality and processed for fluorescence microscopy. Stained with DAPI. A MATLAB®-based algorithm was developed to quantify infection (FIG. 1B) and compared to statistics to describe infection. Percentage of infected cells was determined by counting the proportion of macrophages within an image with at least 2 GFP+ pixels. Infection area was calculated by normalizing the number of GFP+ pixels within a cell to the cell's total area, then averaging across all cells in an image. To evaluate the approach, 2 μg/ml rifampicin in 96-well and 384-well plates was tested in three independent replicates. The Z′-factor was employed as a measure of assay reproducibility. Numbers close to 1 indicated high reproducibility. For percentage of infected macrophages, the Z′-factor was 0.59 and 0.48 in 96-well and 384-well plates, respectively, compared with 0.66 and 0.38 for infection area. The optimal Z′-factor threshold for high-throughput screening was 0.5; however, values above 0 were considered marginal but feasible. Therefore, the percentage of infected macrophages statistic was used.
The 14,400 compound library Maybridge HitFinder™ v11 was screened, which has been extensively screened against mammalian and microbial targets. The library was screened in duplicate at 25 μM in 384-well plates (FIG. 1C). Data were normalized using the B-score method to remove positional variation. The significance of B-scores was calculated using a modified t-test assuming an inverse gamma distribution of variances. Using a dual threshold of B-score greater than 1 and standard deviation from the mean and p-value less than 0.05, 908 compounds (6.3%) were identified that decreased or increased the percentage of infected macrophages. […] Compounds that altered infection by at least 25% in 96-well plates were considered validated hits.
For high-throughput screening and validation, 7×10^3 macrophages in 40 μL or 3×10^4 macrophages in 100 μL were seeded in 384- or 96-well black-walled, glass-bottomed plates (Brooks Automation). […] Forty-five minutes after bacterial addition, 20 or 50 μL gentamicin was added to a final concentration of 40 μg/mL. […] At 2 hours post-infection, 200 or 500 nL compound was added using a pin tool (CyBio) to yield a final concentration of 25 μM. Each assay plate included rifampicin and DMSO controls. In some experiments, media was removed and replaced with fresh medium containing 40 μg/mL gentamicin and the indicated concentrations of drugs. At 17.5 hours post-infection, PBS containing MitoTracker Red CMXRos (Life Technologies) was added to yield a final concentration of 300 nM (384-well) or 100 nM (96-well). Thirty minutes later, 16% paraformaldehyde was added to a final concentration of 1-2% and incubated at room temperature for 15 minutes. Wells were washed twice with PBS and stained for 20 minutes with 1 μM DAPI; wells were washed twice and stored in 90% glycerol in PBS until imaging.
High magnification images were acquired on an Olympus IX81 inverted widefield microscope. For screening imaging, three-color images were acquired at 10× or 20× on a Cellomics ArrayScan VTI (Thermo) and exported to DIB files. At least two images were taken per well for all experiments. […]

bacterial outer membrane = experiment: Nitrocefin access to the periplasm (outer membrane permeability); assay type: cell-based, Salmonella
Procedure: as §1, with “Salmonella. Data is representative of 3-4 independent biological replicates. FIG. 20E depicts slope of the linear region of the A486 plot from at least three experiments. Data is normalized to A486/minute. *p<0.05, ***p<0.001, ****p<0.0001 by one-way ANOVA with Dunnett's post-test.” for “Salmonella.”

Question: Which “halo in swimming assay” value (S.Tm) does the source give for N#CC(C#N)=NNc1cccc(Cl)c1 [CCCP, reference compound] here?
Answer: creating a halo

Question: And the “decrease of TMRM levels versus DMSO” value [1]?
Answer: approximately 50 fold

Question: For OC[C@H]1O[C@@H](n2cnc3cc(Cl)c(Cl)cc32)[C@H](O)[C@@H]1O [DRB], which “basal infection of macrophages” value [2] is on record?
Answer: decreased basal infection

Question: What does the source list for CCn1cc(C(=O)O)c(=O)c2ccc(C)nc21 [Nalidixic acid]?
Answer: sensitivity to freeze-thawing when dissolved in DMSO [3]: sensitive to freeze-thawing; B-score, first replicate of the screen ([4]; 25 μM): −4.41; B-score, second replicate of the screen ([4]; 25 μM): 0.70; hit status in SAFIRE screen ([4]; Maybridge HitFinder v11 library screened at 25 μM): Nalidixic acid^2

Question: Which “basal infection of macrophages” value [2] does the source give for C[C@@H]1C[C@@H]([C@H](O)CC2CC(=O)NC(=O)C2)C(=O)[C@@H](C)C1 [cyclohexamide, cycloheximide] here?
Answer: decreased basal infection

Question: With polymyxin B as the compound, how does the “nitrocefin access to the periplasm” value (bacterial outer membrane; 1 μg/mL) read?
Answer: do not by themselves allow nitrocefin access to the periplasm

Question: And the “nitrocefin access to the periplasm” value (bacterial outer membrane; 5 μg/mL)?
Answer: high enough to allow nitrocefin access to the periplasm
